Test results from publication PMC9481570, “A small molecule antagonist of SMN disrupts the interaction between SMN and RNAP II” (Nature Communications, 2022).
Values joined by “and” are separate entries in the source; they are usually repeats but may differ in a detail not shown here. Equal values may be shown once.

What was measured:
Test in all cases: Affinity-purification and mass spectrometry (AP-MS) chemical proteomics, all proteins;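 on Difference: 200 µM free competitor with 20 µM biotin probe overnight in lysate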
Format in all cases: binding
[1] = target: T1, proteins displaced from immobilized biotin-Cmpd 1 pulldowns (U2OS cell lysate) (Homo sapiens, UniProt Q6PK04); conditions: GN=CCDC137 (Q6PK04)
T1 construct: endogenous in cells; host or cells: U2OS
T1 sequence (Q6PK04 whole entry): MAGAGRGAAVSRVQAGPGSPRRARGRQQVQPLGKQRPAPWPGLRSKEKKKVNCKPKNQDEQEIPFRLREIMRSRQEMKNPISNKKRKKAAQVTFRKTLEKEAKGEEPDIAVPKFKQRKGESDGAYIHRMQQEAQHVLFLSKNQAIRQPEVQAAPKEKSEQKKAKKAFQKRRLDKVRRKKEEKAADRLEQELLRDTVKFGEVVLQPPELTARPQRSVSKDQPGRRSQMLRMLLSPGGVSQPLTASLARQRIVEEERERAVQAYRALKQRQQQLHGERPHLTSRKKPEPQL

[2] = target: T2, proteins displaced from immobilized biotin-Cmpd 1 pulldowns (U2OS cell lysate) (Homo sapiens, UniProt P10599); conditions: GN=TXN (P10599)
T2 construct: endogenous in cells; host or cells: U2OS
T2 sequence (P10599 whole entry): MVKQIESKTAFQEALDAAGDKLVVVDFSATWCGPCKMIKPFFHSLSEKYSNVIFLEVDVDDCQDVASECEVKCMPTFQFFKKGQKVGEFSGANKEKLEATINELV

[3] = tested on: proteins displaced from immobilized biotin-Cmpd 1 pulldowns (U2OS cell lysate); conditions: Cmpd minus DMSO
[4] = target: T3, proteins displaced from immobilized biotin-Cmpd 1 pulldowns (U2OS cell lysate) (Homo sapiens, UniProt P61313); conditions: GN=RPL15 (P61313)
T3 construct: endogenous in cells; host or cells: U2OS

[5] = target: T4, proteins displaced from immobilized biotin-Cmpd 1 pulldowns (U2OS cell lysate) (Homo sapiens, UniProt P06493); conditions: GN=CDK1 (P06493)
T4 construct: endogenous in cells; host or cells: U2OS
T4 sequence (P06493 whole entry): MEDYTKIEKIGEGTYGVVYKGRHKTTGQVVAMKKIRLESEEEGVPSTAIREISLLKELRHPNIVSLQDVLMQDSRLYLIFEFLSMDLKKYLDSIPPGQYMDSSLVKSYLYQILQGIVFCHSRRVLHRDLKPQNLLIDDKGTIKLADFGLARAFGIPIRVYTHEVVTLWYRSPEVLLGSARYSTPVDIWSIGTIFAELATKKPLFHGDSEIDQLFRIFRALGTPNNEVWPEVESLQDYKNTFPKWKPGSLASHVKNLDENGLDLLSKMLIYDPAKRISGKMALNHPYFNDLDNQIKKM

[6] = target: T5, proteins displaced from immobilized biotin-Cmpd 1 pulldowns (U2OS cell lysate) (Homo sapiens, UniProt O95478); conditions: GN=NSA2 (O95478)
T5 construct: endogenous in cells; host or cells: U2OS

[7] = target: T6, proteins displaced from immobilized biotin-Cmpd 1 pulldowns (U2OS cell lysate) (Homo sapiens, UniProt Q7Z2W9); conditions: GN=MRPL21 (Q7Z2W9)
T6 construct: endogenous in cells; host or cells: U2OS

[8] = target: T7, proteins displaced from immobilized biotin-Cmpd 1 pulldowns (U2OS cell lysate) (Homo sapiens, UniProt Q5T749); conditions: GN=KPRP (Q5T749)
T7 construct: endogenous in cells; host or cells: U2OS
T7 sequence (Q5T749 whole entry): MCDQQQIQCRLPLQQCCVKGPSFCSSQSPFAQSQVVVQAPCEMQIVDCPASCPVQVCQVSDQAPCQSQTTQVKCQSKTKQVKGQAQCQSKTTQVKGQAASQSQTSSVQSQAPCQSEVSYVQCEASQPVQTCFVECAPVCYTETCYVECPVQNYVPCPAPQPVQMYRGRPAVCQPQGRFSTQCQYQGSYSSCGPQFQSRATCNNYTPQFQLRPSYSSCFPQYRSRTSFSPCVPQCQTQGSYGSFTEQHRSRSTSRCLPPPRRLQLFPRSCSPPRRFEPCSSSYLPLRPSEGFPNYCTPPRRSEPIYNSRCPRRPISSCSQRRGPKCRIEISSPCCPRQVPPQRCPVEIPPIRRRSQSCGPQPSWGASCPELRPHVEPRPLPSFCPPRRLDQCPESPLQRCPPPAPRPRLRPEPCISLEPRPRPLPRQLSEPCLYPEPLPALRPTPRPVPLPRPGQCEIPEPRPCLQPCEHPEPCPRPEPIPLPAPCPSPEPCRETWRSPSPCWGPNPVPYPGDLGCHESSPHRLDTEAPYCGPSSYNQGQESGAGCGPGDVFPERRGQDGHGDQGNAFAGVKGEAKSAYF

[9] = target: T8, proteins displaced from immobilized biotin-Cmpd 1 pulldowns (U2OS cell lysate) (Homo sapiens, UniProt P06396); conditions: GN=GSN (P06396)
T8 construct: endogenous in cells; host or cells: U2OS
T8 sequence (P06396 28-782): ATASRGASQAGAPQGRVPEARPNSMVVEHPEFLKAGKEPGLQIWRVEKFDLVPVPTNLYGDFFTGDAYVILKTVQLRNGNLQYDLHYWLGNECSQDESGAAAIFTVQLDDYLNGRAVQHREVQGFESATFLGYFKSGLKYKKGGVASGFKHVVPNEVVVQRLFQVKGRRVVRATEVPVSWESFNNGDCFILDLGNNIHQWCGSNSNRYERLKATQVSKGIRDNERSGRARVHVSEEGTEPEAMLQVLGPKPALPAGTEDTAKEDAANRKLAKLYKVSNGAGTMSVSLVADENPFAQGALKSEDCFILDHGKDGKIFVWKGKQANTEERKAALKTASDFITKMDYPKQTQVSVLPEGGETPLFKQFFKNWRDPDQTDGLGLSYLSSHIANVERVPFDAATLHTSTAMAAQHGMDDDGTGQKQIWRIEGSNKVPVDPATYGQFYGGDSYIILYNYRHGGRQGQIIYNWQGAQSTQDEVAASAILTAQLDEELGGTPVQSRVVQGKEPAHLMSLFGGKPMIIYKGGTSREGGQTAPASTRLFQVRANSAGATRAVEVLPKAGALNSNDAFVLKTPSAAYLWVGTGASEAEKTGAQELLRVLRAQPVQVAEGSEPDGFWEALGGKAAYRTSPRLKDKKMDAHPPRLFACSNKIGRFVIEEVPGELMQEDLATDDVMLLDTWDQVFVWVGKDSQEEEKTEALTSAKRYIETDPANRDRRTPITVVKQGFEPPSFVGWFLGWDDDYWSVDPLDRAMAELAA

`Cn1c2c(c(=N)c3c1CCC3)CCC2` [Compound 1, 4-methyl-2,3,4,5,6,7-hexahydrodicyclopenta[b,e]pyridin-8(1H)-imine] was tested, and the Difference ([1]; Cmpd minus DMSO, -LOG(P-value) 1.1923) was 2.593, the “iBAQ Cmpd” value ([1]; replicates 1-3) was 19.0065 and 18.1463 and 18.0423 and the Difference ([2]; Cmpd minus DMSO, -LOG(P-value) 1.02279) was -1.031. The “iBAQ Cmpd” value ([2]; replicates 1-3) was 20.7578 and 20.8108 and 19.926, the Difference ([3]; GN=ACTA1/ACTC1 (P68133;P68032;P63267;P62736), -LOG(P-value) 1.19415) was -2.469 and the Difference ([3]; GN=FXR1 (P51114;P51116 FXR2), -LOG(P-value) 0.714644) was 1.56. It also gave a Difference ([3]; GN=MYL1/MYL3 (P05976;P08590), -LOG(P-value) 0.754366) of -4.118, a Difference ([3]; GN=RGPD4/RGPD3 (Q7Z3J3;A6NKT7;P49792), -LOG(P-value) 1.07048) of -0.9439 and a Difference ([3]; GN=TUBB2A/TUBB2B (Q13885;Q9BVA1), -LOG(P-value) 2.56756) of 3.9801. For the same compound, the Difference ([4]; Cmpd minus DMSO, -LOG(P-value) 0.777225) was -0.7361, the “iBAQ Cmpd” value ([4]; replicates 1-3) was 21.3956 and 22.1107 and 21.8582 and the Difference ([5]; Cmpd minus DMSO, -LOG(P-value) 0.868994) was -0.7208. The “iBAQ Cmpd” value ([5]; replicates 1-3) was 20.3513 and 19.7871 and 19.2381, the Difference ([6]; Cmpd minus DMSO, -LOG(P-value) 0.709566) was 1.456 and the “iBAQ Cmpd” value ([6]; replicates 1-3) was 18.8418 and 18.1506 and 17.9444. For the same compound, the Difference ([7]; Cmpd minus DMSO, -LOG(P-value) 0.745191) was 1.429, the “iBAQ Cmpd” value ([7]; replicates 1-3) was 17.7953 and 15.5869 and 17.7004 and the Difference ([8]; Cmpd minus DMSO, -LOG(P-value) 1.8417) was -3.732. The “iBAQ Cmpd” value ([8]; replicates 1-3) was 15.9159 and 16.7213 and 14.3127, the Difference ([9]; Cmpd minus DMSO, -LOG(P-value) 0.71197) was -1.503 and the “iBAQ Cmpd” value ([9]; replicates 1-3) was 18.7093 and 18.978 and 19.6978.
